The subject of test [1] is Hs578T. To be noted: 72 h. As for the experimental part:
(§1)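 Drug sensitivity and resistance testing (DSRT) of breast cancer cell lines in 384-well plates, 5 concentrations in 10-fold dilutions over a compound-specific 10,000-fold range. After 72 h, cytotoxicity was read by CellTox Green fluorescence and viability by CellTiter-Glo luminescence (multiplexed), normalised to DMSO and benzethonium chloride controls. EC50 is the inflection point of the fitted dose-response curve (bottom asymptote free, so it can be relative for partial curves) and is censored at the highest tested concentration. Rows with DSS 0 (no meaningful response) were excluded.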

The next test deals with HCC1937. The following applies: 72 h. The gist of the method:
(§2)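 Compound dissolved in 5 µl medium was placed in 384-well plates before 20 µl of breast cancer cell suspension was added, and the plates were incubated for 72 h. Cells then received 2.5 µl CellTiter-Blue for 2 h at 37 °C, and fluorescence was read at 560/590 nm. EC50 values come from percent-inhibition dose-response fits that were censored at the highest concentration, with plates normalised to vehicle and a positive kill control and rows with a zero drug sensitivity score excluded.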

The subject of test [2] is MFM-223. To be noted: 72 h. A digest of the protocol: as §2
For test [3], the system named is MDA-MB-436. The following applies: 72 h. The gist of the method:
as §2

The test system of test [4] is BT-474. To be noted: 72 h. The gist of the method:
as §2

A further test concerns BT-549. The following applies: 72 h. A digest of the protocol: as §2
For a further test, the system named is SK-BR-3. The following applies: 72 h. The gist of the method: as §2
The subject of test [5] is Hs578T. The following applies: 72 h. The gist of the method:
as §2
This is another data set of the same source.

Test [6] relates to MDA-MB-231. The following applies: 72 h. The gist of the method: as §2
Test [7] deals with MDA-MB-468. To be noted: 72 h. A digest of the protocol: as §2
Test [8] deals with HCC1599. To be noted: 72 h. The gist of the method: as §2
For test [9], the system named is HCC1143. To be noted: 72 h. A digest of the protocol:
as §2

Test [10] has as its system CAL-120. To be noted: 72 h. A digest of the protocol:
as §2

Test [11] relates to CAL-85-1. To be noted: 72 h. A digest of the protocol: as §2
In test [12] the test system is DU-4475. To be noted: 72 h. The gist of the method: as §2
The test system of test [13] is HDQ-P1. To be noted: 72 h. The gist of the method:
as §2

Test [14] concerns CAL-51. The following applies: 72 h. The gist of the method:
as §2

Test [15] has as its system CAL-148. The following applies: 72 h. The gist of the method: as §2
The test system of test [16] is MFM-223. To be noted: 72 h. A digest of the protocol: (§3)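 Two sequential readouts followed a 72 h incubation of breast cancer cell lines with compound at 5 concentrations in 10-fold steps over a compound-specific 10,000-fold range: CellTox Green fluorescence (485/520 nm) for cell death, then CellTiter-Glo luminescence, after 10 min at room temperature, for viability. Each plate was normalised to 0.1 % DMSO and a positive kill control. Dose-response curves were fitted for EC50, censored at the top concentration.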
The source holds these as a separate data set.

For test [17], the system named is DU-4475. To be noted: 72 h. A digest of the protocol: as §3
This is another data set of the same source.

Test [18] relates to HDQ-P1. To be noted: 72 h. A digest of the protocol:
as §3
This is another data set of the same source.

In test [19] the test system is HCC1599. The following applies: 72 h. The gist of the method: as §3
The source holds these as a separate data set.

The subject of test [20] is CAL-148. To be noted: 72 h. The gist of the method:
as §3
This is another data set of the same source.

For test [21], the system named is HCC1143. To be noted: 72 h. The gist of the method: as §3
This is another data set of the same source.

Test [22] has as its system DU-4475. In words: normalised viability (% of control), CellTiter-Blue; higher = more viable cells (about 100 = DMSO control). To be noted: incubation time: 72 h. A digest of the protocol:
(§4)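 384-well plates were pre-loaded with compound in 5 µl medium before 20 µl of breast cancer cell suspension was seeded. Following 72 h incubation, 2.5 µl CellTiter-Blue reagent was added for 2 h at 37 °C. Fluorescence was read at 560/590 nm and plates were normalised to vehicle (100) and a positive kill control (0), checked by Z'-factor. Normalised viability is reported at a single listed concentration of the series.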
For orientation: Resazurin is reduced to fluorescent resorufin, in cell work by metabolically active cells.

In test [23] the test system is BT-474. The test is described as above. To be noted: incubation time: 72 h. A digest of the protocol:
as §4

Test [24] deals with CAL-148. Described as above. The following applies: incubation time: 72 h. A digest of the protocol: as §4
The test system of test [25] is CAL-85-1. The following applies: 72 h. As for the experimental part: as §1
The source holds these as a separate data set.

For test [26], the system named is BT-474. The following applies: 72 h. As for the experimental part:
as §1
This is another data set of the same source.

In test [27] the test system is CAL-51. The following applies: 72 h. As for the experimental part:
as §1
This is another data set of the same source.

The subject of test [28] is MDA-MB-468. The following applies: 72 h. As for the experimental part: as §1
This is another data set of the same source.

The subject of test [29] is CAL-148. To be noted: 72 h. As for the experimental part:
as §1
The source holds these as a separate data set.

Test [30] has as its system HCC1143. To be noted: 72 h. On the procedure: as §1
The source holds these as a separate data set.

Test [31] concerns MDA-MB-436. To be noted: 72 h. As for the experimental part: as §1
This is another data set of the same source.

The next test has as its system MDA-MB-453. The following applies: 72 h. On the procedure: as §1
A further test relates to MCF-10A. To be noted: 72 h. As for the experimental part:
as §1

The test system of test [32] is MDA-MB-231. The following applies: 72 h. As for the experimental part:
as §1
This is another data set of the same source.

The subject of test [33] is CAL-120. To be noted: 72 h. On the procedure:
as §1
The source holds these as a separate data set.

Turning to `Nc1ncnc2c1c(COc1cccc(Cl)c1)nn2C1CCOCC1`, the “EC50, CellTox Green” value in the test with Hs578T [1] is over 10 µM.
For the compound `COc1ccc(-c2ccc3c(N4CCOC[C@@H]4C)nc(N4CCOC[C@@H]4C)nc3n2)cc1CO` [AZD8055], the “EC50, CellTiter-Blue viability” value amounted to 0.0154 µM in the test on HCC1937; 0.0187 µM in the test on MFM-223 [2]; 0.106 µM in the test on MDA-MB-436 [3]; 0.0838 µM in the test with BT-474 [4]; 0.061 µM in the test on BT-549; 0.0201 µM in the test on SK-BR-3. Further, the “EC50, CellTiter-Blue viability” value is 0.0369 µM with Hs578T [5]; 0.0474 µM in the test on MDA-MB-231 [6]; 0.149 µM in the test on MDA-MB-468 [7]; 0.0628 µM with HCC1599 [8]; 0.0792 µM with HCC1143 [9]; 0.0454 µM with CAL-120 [10]. For the same compound, the “EC50, CellTiter-Blue viability” value in the test with CAL-85-1 [11] stood at 0.0347 µM; in the test on DU-4475 [12], 0.104 µM; with HDQ-P1 [13] it was 0.0238 µM; in the test on CAL-51 [14], 0.0219 µM; in the test on CAL-148 [15], 0.0345 µM. Further, the “EC50, CellTiter-Glo” value with MFM-223 [16] turned out to be 0.0203 µM; in the test with DU-4475 [17] it was 0.229 µM; in the test on HDQ-P1 [18], 0.0305 µM; in the test on HCC1599 [19], 0.152 µM; in the test on CAL-148 [20] it was 0.0641 µM; in the test with HCC1143 [21] it was 0.0404 µM. For the same compound, the normalised viability came out at 95.8% in the test on DU-4475 [22] (3 nM), 108% in the test with BT-474 [23] (10 nM) and 89.3% with CAL-148 [24] (3 nM). Also, the “EC50, CellTox Green” value in the test on CAL-85-1 [25] is over 10 µM; with BT-474 [26], 9.15 µM; in the test on CAL-51 [27] it was 0.0052 µM; in the test with MDA-MB-468 [28], 6.94 µM; with CAL-148 [29], 0.0307 µM; in the test on HCC1143 [30], 1.47 µM.
`C[C@]12CC[C@H](O)CC1=CC[C@@H]1[C@@H]2CC[C@]2(C)C(c3cccnc3)=CC[C@@H]12` [Abiraterone]: the values for the normalised viability with DU-4475 [22] (1.5 nM), in the test on BT-474 [23] (5 nM) and in the test with CAL-148 [24] (1.5 nM) were 84.6%, 116% and 91.5%, respectively.
As to `CN(C)CCN1C(=O)c2cccc3cc(N)cc(c23)C1=O` [Amonafide], the “EC50, CellTiter-Blue viability” value is 1.11 µM with HCC1937; 7.28 µM in the test with MFM-223 [2]; 2.76 µM with MDA-MB-436 [3]; over 10 µM in the test on BT-474 [4]; 9.68 µM with BT-549; 5.74 µM in the test on SK-BR-3. Further, the “EC50, CellTiter-Blue viability” value in the test on Hs578T [5] is 9.38 µM; with MDA-MB-231 [6], 2.24 µM; with MDA-MB-468 [7], 6.67 µM; in the test with HCC1599 [8] it was 9.62 µM; in the test with HCC1143 [9], 3.71 µM; in the test with CAL-120 [10] it was 3.37 µM. In addition, the “EC50, CellTiter-Blue viability” value was found to be 4.45 µM with CAL-85-1 [11]; 3.24 µM with DU-4475 [12]; 9.74 µM in the test with HDQ-P1 [13]; 3.32 µM in the test on CAL-51 [14]; 1.83 µM with CAL-148 [15]. The “EC50, CellTiter-Glo” value is 7.4 µM with MFM-223 [16]; 3.3 µM in the test with DU-4475 [17]; over 10 µM in the test with HCC1599 [19]; 4.3 µM with CAL-148 [20]; 3.33 µM in the test with HCC1143 [21]. The normalised viability came out at 100% in the test on DU-4475 [22] (3 nM), 114% with BT-474 [23] (10 nM) and 88.8% in the test on CAL-148 [24] (3 nM). Moreover, the results for the “EC50, CellTox Green” value with MDA-MB-436 [31], in the test with CAL-51 [27] and in the test on CAL-148 [29] were 0.0444 µM, 6.26 µM and 6.19 µM, respectively.
Regarding `CC(C)(C#N)c1cc(Cn2cncn2)cc(C(C)(C)C#N)c1` [Anastrozole], the results for the normalised viability in the test on DU-4475 [22] (3 nM), in the test with BT-474 [23] (10 nM) and in the test on CAL-148 [24] (3 nM) were 106%, 110% and 93.3%, respectively. Besides, in the test on MDA-MB-453, the “EC50, CellTox Green” value was over 10 µM.
Take `CC(C)c1c(C(=O)Nc2ccccc2)c(-c2ccccc2)c(-c2ccc(F)cc2)n1CC[C@@H](O)C[C@@H](O)CC(=O)O` [Atorvastatin]: the “EC50, CellTiter-Glo” value with HDQ-P1 [18] amounted to 1.25 µM; with HCC1143 [21], 2.03 µM. Also, the “EC50, CellTox Green” value in the test on MCF-10A is 1.94 µM; in the test on MDA-MB-453 it was over 10 µM; with Hs578T [1], 3.78 µM; in the test with CAL-51 [27], 0.668 µM; in the test with MDA-MB-231 [32] it was 0.796 µM; in the test with CAL-120 [33], 9.01 µM.

The values are drawn from the supplement of paper PMC4862054.
